# Laboratory results taken from US20250376461A1, “INDAZOLE DERIVATIVES FOR TREATING TRPM3-MEDIATED DISORDERS” (Katholieke Universiteit Leuven, priority 2022, published 2025).
# Biological target: T1, mouse TRPM3α2 (mTRPM3) ion channel (Mus musculus, UniProt J9SQF3)
# T1 construct: expressed in transfected cells; host or cells: flip-in HEK293
# Assay: TRPM3 ion channel driven Ca2+ uptake, Fluo-4 AM assay, mTRPM3alpha2 overexpressing flip-in HEK293 cells stimulated with pregnenolone sulfate (50 μM)
# Format: cell-based
# Conditions: mTRPM3 overexpressing HEK293 cells stimulated with pregnenolone sulfate (50 μM), activity ranges A, B, C
# Method in brief: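 Flip-in HEK293 cells overexpressing mTRPM3α2, loaded with Fluo-4 AM, added at ±2000 cells/well to plates holding compound plus 50 μM pregnenolone sulfate in Ca2+-containing Krebs buffer. Fluorescence (ex 485/em 535 nm) read immediately. Percent inhibition normalised between vehicle and positive-control inhibitor; IC50 derived.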
# T1 sequence (J9SQF3 1-1709 isoform J9SQF3-12): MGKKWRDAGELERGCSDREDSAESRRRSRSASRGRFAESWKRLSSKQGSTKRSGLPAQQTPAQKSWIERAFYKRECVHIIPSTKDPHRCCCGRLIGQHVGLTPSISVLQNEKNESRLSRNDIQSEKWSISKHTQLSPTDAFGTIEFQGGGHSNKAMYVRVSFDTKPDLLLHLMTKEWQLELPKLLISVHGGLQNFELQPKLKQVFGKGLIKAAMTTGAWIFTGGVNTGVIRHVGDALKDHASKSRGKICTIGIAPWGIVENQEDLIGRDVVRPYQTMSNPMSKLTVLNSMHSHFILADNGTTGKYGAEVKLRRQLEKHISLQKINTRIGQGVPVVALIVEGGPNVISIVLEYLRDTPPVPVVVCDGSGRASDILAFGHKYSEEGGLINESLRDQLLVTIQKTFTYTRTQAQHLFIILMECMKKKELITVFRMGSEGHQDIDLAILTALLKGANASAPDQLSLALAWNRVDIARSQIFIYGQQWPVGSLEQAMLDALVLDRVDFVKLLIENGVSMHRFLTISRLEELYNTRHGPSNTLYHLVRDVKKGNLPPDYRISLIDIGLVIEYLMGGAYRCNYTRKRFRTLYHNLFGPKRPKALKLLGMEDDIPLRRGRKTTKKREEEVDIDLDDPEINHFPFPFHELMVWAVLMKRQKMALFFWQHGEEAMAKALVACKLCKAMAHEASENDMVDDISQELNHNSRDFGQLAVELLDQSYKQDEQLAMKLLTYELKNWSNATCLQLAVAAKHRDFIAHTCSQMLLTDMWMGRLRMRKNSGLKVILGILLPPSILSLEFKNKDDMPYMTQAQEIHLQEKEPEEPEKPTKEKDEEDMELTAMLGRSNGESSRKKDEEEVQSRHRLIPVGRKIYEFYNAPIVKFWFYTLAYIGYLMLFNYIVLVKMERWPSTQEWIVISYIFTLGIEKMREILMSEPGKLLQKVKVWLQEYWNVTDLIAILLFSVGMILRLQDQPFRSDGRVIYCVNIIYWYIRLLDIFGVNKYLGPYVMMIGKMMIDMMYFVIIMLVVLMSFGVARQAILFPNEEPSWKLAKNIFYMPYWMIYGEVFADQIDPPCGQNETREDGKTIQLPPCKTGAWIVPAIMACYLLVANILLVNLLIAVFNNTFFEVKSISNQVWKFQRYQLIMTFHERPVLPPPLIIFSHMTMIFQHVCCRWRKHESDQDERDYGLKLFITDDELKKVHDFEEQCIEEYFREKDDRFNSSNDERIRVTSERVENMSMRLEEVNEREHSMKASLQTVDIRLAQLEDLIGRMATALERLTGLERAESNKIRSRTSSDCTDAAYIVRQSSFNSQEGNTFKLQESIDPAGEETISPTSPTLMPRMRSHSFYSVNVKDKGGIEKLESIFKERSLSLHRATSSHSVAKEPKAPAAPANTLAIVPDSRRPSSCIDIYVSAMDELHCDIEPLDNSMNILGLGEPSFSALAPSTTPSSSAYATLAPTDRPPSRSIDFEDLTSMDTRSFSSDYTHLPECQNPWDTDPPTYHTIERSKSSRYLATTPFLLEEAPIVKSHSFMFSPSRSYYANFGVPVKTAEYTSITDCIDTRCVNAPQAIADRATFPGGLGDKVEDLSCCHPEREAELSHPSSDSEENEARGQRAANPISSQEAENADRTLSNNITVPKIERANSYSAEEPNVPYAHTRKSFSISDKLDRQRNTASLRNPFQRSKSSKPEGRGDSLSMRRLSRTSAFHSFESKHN
row,IC50,Compound
1,> 20 µM,"Cn1nc2ccc(OCc3ccccn3)cc2c1C(=O)NC(CO)Cc1ncccn1 (single isomer, unassigned) [Cpd 243 - En2]"
2,> 20 µM,"Cn1nc2ccc(OCC3CC3)cc2c1C(=O)NC1(CO)CCNC1=O (single isomer, unassigned) [Cpd 161 - En2]"
3,< 1 µM,"Cn1nc2ccc(OCc3cccnc3)cc2c1C(=O)NC1(CO)CCNC1=O (single isomer, unassigned) [Cpd 180 - En1]"
4,< 1 µM,"Cn1nc2ccc(OCc3cccnc3)cc2c1C(=O)NC1(C(N)=O)CCOC1 (single isomer, unassigned) [Cpd 168 - En2]"
5,1 to 20 µM,"Cc1ncsc1COc1ccc2nn(C)c(C(=O)NC3(CCO)CCC3)c2c1 [Cpd 048, N-[1-(2-hydroxyethyl)cyclobutyl]-2-methyl-5-[(4-methyl-1,3-thiazol-5-yl)methoxy]-2H-indazole-3-carboxamide]"
6,> 20 µM,"Cn1ccc(C(C)(CO)NC(=O)c2c3cc(OCc4ccccn4)ccc3nn2C)n1 (single isomer, unassigned) [Cpd 239 - En1]"
7,> 20 µM,"Cn1nc2ccc(OCc3ccccn3)cc2c1C(=O)NC1(CO)CC1 [Cpd 104, N-[1-(hydroxymethyl)cyclopropyl]-2-methyl-5-[(pyridin-2-yl)methoxy]-2H-indazole-3-carboxamide]"
8,> 20 µM,"Cn1ccc(C(CO)NC(=O)c2c3cc(OCc4ccccn4)ccc3nn2C)n1 (single isomer, unassigned) [Cpd 251 - En2]"
9,< 1 µM,"Cc1ccc(COc2ccc3nn(C)c(C(=O)NC4(CO)CCNC4=O)c3c2)cn1 (single isomer, unassigned) [Cpd 169 - En2]"
10,1 to 20 µM,"Cn1nc2ccc(OCc3ccccn3)cc2c1C(=O)NC(C)(CO)CC(F)(F)F (single isomer, unassigned) [Cpd 255 - En1, 2-methyl-5-[(pyridin-2-yl)methoxy]-N-(4,4,4-trifluoro-1-hydroxy-2-methylbutan-2-yl)-2H-indazole-3-carboxamide]"
11,1 to 20 µM,"Cc1ncsc1COc1ccc2nn(C)c(C(=O)NC3(CO)CC3)c2c1 [Cpd 047, N-[1-(hydroxymethyl)cyclopropyl]-2-methyl-5-[(4-methyl-1,3-thiazol-5-yl)methoxy]-2H-indazole-3-carboxamide]"
12,1 to 20 µM,"Cc1nc(COc2ccc3nn(C)c(C(=O)NC(C)(CO)C(N)=O)c3c2)cs1 (single isomer, unassigned) [Cpd 160 - En1]"
13,1 to 20 µM,"Cn1nc2ccc(OCc3cccnc3C(F)(F)F)cc2c1C(=O)NCc1cccc(O)n1 [Cpd 036, N-[(6-hydroxypyridin-2-yl)methyl]-2-methyl-5-{[2-(trifluoromethyl)pyridin-3-yl]methoxy}-2H-indazole-3-carboxamide]"
14,1 to 20 µM,"Cn1nc2ccc(OCc3ccccn3)cc2c1C(=O)NC(CO)c1ccccn1 (single isomer, unassigned) [Cpd 221 - En2]"
15,1 to 20 µM,"Cc1ncc(COc2ccc3nn(C)c(C(=O)NC4(CO)CCC4)c3c2)s1 [Cpd 108, N-[1-(hydroxymethyl)cyclobutyl]-2-methyl-5-[(2-methyl-1,3-thiazol-5-yl)methoxy]-2H-indazole-3-carboxamide]"
16,1 to 20 µM,"Cn1nc2ccc(OCc3ccccc3)cc2c1C(=O)NC(C)(CO)CO [Cpd 017, 5-(benzyloxy)-N-(1,3-dihydroxy-2-methylpropan-2-yl)-2-methyl-2H-indazole-3-carboxamide]"
17,1 to 20 µM,"Cn1nc2ccc(OCc3ccccc3)cc2c1C(=O)NC1(CO)CC1 [Cpd 004, 5-(benzyloxy)-N-[1-(hydroxymethyl)cyclopropyl]-2-methyl-2H-indazole-3-carboxamide]"
18,> 20 µM,"Cn1nc2ccc(OCc3ccccn3)cc2c1C(=O)NCC(O)CC(F)(F)F (single isomer, unassigned) [Cpd 245 - En1]"
19,< 1 µM,"Cn1nc2ccc(OCc3ccccn3)cc2c1C(=O)NC1(CO)CCNC1=O (single isomer, unassigned) [Cpd 253 - En1]"
20,> 20 µM,"Cn1nccc1COc1ccc2nn(C)c(C(=O)NCC(C)(C)N3CCOCC3)c2c1 [Cpd 049, 2-methyl-5-[(1-methyl-1H-pyrazol-5-yl)methoxy]-N-[2-methyl-2-(morpholin-4-yl)propyl]-2H-indazole-3-carboxamide]"
21,1 to 20 µM,"COc1ccc2nn(C)c(C(=O)NC(C)(CO)C(N)=O)c2c1 (single isomer, unassigned) [Cpd 172 - En2]"
22,1 to 20 µM,"Cn1nc2ccc(OCc3ccccn3)cc2c1C(=O)NC(CO)C1CCOCC1 (single isomer, unassigned) [Cpd 241 - En1]"
23,1 to 20 µM,"Cn1nc2ccc(OCc3cccnc3)cc2c1C(=O)NC(C)(CO)C(N)=O (single isomer, unassigned) [Cpd 190 - En1]"
24,1 to 20 µM,"Cn1nc2ccc(OCc3ccccn3)cc2c1C(=O)NC1CCNCC1(F)F (single isomer, unassigned) [Cpd 128 - En1]"

row,IC50,Compound
1,< 1 µM,"Cn1nc2ccc(OCC3CCC3)cc2c1C(=O)NC1(CO)CCNC1=O (single isomer, unassigned) [Cpd 159 - En2]"
2,1 to 20 µM,"Cc1ncsc1COc1ccc2nn(C)c(C(=O)NC3(CO)CCC3)c2c1 [Cpd 043, N-[1-(hydroxymethyl)cyclobutyl]-2-methyl-5-[(4-methyl-1,3-thiazol-5-yl)methoxy]-2H-indazole-3-carboxamide]"
3,1 to 20 µM,"Cn1nc2ccc(OCc3ccccc3)cc2c1C(=O)NC1(C(N)=O)CCC1 [Cpd 033, 5-(benzyloxy)-N-(1-carbamoylcyclobutyl)-2-methyl-2H-indazole-3-carboxamide]"
4,1 to 20 µM,"Cc1ccc(COc2ccc3nn(C)c(C(=O)NC4(C(N)=O)CCOC4)c3c2)cn1 (single isomer, unassigned) [Cpd 164 - En1, N-(3-carbamoyloxolan-3-yl)-2-methyl-5-[(6-methylpyridin-3-yl)methoxy]-2H-indazole-3-carboxamide]"
5,1 to 20 µM,"Cn1nc2ccc(OCc3cccnc3C(F)(F)F)cc2c1C(=O)NC1(CCO)CCC1 [Cpd 065, N-[1-(2-hydroxyethyl)cyclobutyl]-2-methyl-5-{[2-(trifluoromethyl)pyridin-3-yl]methoxy}-2H-indazole-3-carboxamide]"
6,1 to 20 µM,"Cn1nc2ccc(OCc3ccccc3)cc2c1C(=O)O [Cpd 197, 5-(benzyloxy)-2-methyl-2H-indazole-3-carboxylic acid]"
7,< 1 µM,"Cc1nc(COc2ccc3nn(C)c(C(=O)NC(C)(CO)C(N)=O)c3c2)cs1 (single isomer, unassigned) [Cpd 160 - En2]"
8,1 to 20 µM,"Cn1nc2ccc(OCC3CC3)cc2c1C(=O)NC(C)(C)C(N)=O [Cpd 134, 2-{[5-(cyclopropylmethoxy)-2-methyl-2H-indazol-3-yl]formamido}-2-methylpropanamide]"
9,1 to 20 µM,"Cn1nc2ccc(OCc3ccccn3)cc2c1C(=O)NC(CO)c1nccn1C1CC1 (single isomer, unassigned) [Cpd 238 - En1]"
10,> 20 µM,"Cn1nc2ccc(OCc3ccccn3)cc2c1C(=O)NC(CO)c1ccc(F)cc1 (single isomer, unassigned) [Cpd 220 - En1]"
11,1 to 20 µM,"Cn1nc2ccc(OCc3ccccc3)cc2c1C(=O)NC1(CCO)CCC1 [Cpd 051, 5-(benzyloxy)-N-[1-(2-hydroxyethyl)cyclobutyl]-2-methyl-2H-indazole-3-carboxamide]"
12,1 to 20 µM,"Cc1ncsc1COc1ccc2nn(C)c(C(=O)NC3(CO)CCOCC3)c2c1 [Cpd 001, N-[4-(hydroxymethyl)oxan-4-yl]-2-methyl-5-[(4-methyl-1,3-thiazol-5-yl)methoxy]-2H-indazole-3-carboxamide]"
13,1 to 20 µM,"Cc1ncsc1COc1ccc2nn(C)c(C(=O)NC(C)(CO)C(=O)N(C)C)c2c1 (single isomer, unassigned) [Cpd 184 - En2]"
14,1 to 20 µM,"Cc1ncsc1COc1ccc2nn(C)c(C(=O)NC3CCNCC3(F)F)c2c1 (single isomer, unassigned) [Cpd 132 - En2]"
15,1 to 20 µM,"Cn1nc2ccc(OCc3cccnc3C(F)(F)F)cc2c1C(=O)NCC1CCC(=O)N1 (centres unmarked) [Cpd 054, 2-methyl-N-[(5-oxopyrrolidin-2-yl)methyl]-5-{[2-(trifluoromethyl)pyridin-3-yl]methoxy}-2H-indazole-3-carboxamide]"
16,> 20 µM,"Cn1nc2ccc(OCC3COC3)cc2c1C(=O)NC(C)(CO)C(N)=O (single isomer, unassigned) [Cpd 167 - En2]"
17,> 20 µM,"Cn1nc2ccc(OCC3CC3)cc2c1C(=O)NCC1CC1 [Cpd 133, 5-(cyclopropylmethoxy)-N-(cyclopropylmethyl)-2-methyl-2H-indazole-3-carboxamide]"
18,1 to 20 µM,"Cn1nc2ccc(OCc3ccccc3)cc2c1C(=O)NC(C)(C)CO [Cpd 023, 5-(benzyloxy)-N-(1-hydroxy-2-methylpropan-2-yl)-2-methyl-2H-indazole-3-carboxamide]"
19,1 to 20 µM,"Cc1ncsc1COc1ccc2nn(C)c(C(=O)NC3CNCCC3(F)F)c2c1 (single isomer, unassigned) [Cpd 211 - En1, N-(4,4-difluoropiperidin-3-yl)-2-methyl-5-[(4-methyl-1,3-thiazol-5-yl)methoxy]-2H-indazole-3-carboxamide]"
20,> 20 µM,"COc1ccc2nn(C)c(C(=O)NC(C)(CO)C(N)=O)c2c1 (single isomer, unassigned) [Cpd 172 - En1]"
21,1 to 20 µM,"CN1CCC(NC(=O)c2c3cc(OCc4ccccn4)ccc3nn2C)CC1 [Cpd 084, 2-methyl-N-(1-methylpiperidin-4-yl)-5-[(pyridin-2-yl)methoxy]-2H-indazole-3-carboxamide]"
22,1 to 20 µM,"Cc1ncsc1COc1ccc2nn(C)c(C(=O)NC3(C(N)=O)CCOC3)c2c1 (single isomer, unassigned) [Cpd 170 -En1]"
23,1 to 20 µM,"Cn1nccc1COc1ccc2nn(C)c(C(=O)NC3COCC3O)c2c1 (single isomer, unassigned) [Cpd 056 - Dia1]"
